# Source: PMC6385203, “Mutations in the palm domain disrupt modulation of acid-sensing ion channel 1a currents by neuropeptides” (Scientific Reports, 2019)
# Peptide text beside a SMILES is read from it.
# Biological target: T1, WT ASIC1a (Homo sapiens, UniProt P78348)
# T1 construct: expressed in transfected cells; host or cells: Xenopus laevis oocytes injected with cRNA
# T1 sequence (P78348 1-528): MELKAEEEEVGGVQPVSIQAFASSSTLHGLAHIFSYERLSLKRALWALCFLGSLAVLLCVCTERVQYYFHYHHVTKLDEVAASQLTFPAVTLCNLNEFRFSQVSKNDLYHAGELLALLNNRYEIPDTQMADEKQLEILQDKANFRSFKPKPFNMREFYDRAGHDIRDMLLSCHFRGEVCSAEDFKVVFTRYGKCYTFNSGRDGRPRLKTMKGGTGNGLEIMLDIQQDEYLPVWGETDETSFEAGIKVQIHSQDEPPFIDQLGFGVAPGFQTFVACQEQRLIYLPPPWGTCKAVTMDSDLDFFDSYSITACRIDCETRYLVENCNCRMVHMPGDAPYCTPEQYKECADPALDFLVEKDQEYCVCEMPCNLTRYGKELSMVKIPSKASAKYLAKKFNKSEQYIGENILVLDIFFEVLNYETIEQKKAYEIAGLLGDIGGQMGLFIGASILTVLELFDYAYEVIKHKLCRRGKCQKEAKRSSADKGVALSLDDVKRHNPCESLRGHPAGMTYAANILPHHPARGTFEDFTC
# Assay: Isust/Ipeak, TEVC in Xenopus oocytes, WT
# Assay type: cell-based
# Conditions: FRRFa in pH7.4 conditioning and pH5 solution, mean ± SEM, n = 7–12, read-out: EC50 for induction of sustained current (Isust/Ipeak)
# Method: ASIC1a function was measured by two-electrode voltage-clamp after recombinant expression in Xenopus oocytes. The channels were activated by a pH5 stimulation solution from a conditioning solution of pH7.4. […] We measured the rate of FRRFa unbinding, as the disappearance of the sustained current after a 50-s incubation with 50 μM FRRFa, as 0.025 ± 0.005 s^−1 (n = 8, Fig. 2b). […] To determine the kinetics of FRRFa association on ASIC1a, we pre-applied the peptide at a concentration of 50 μM for different time periods in the conditioning solution and measured the sustained current fraction.
# Human ASIC1a[43] had been subcloned into a vector for transcription that contained 5′- and 3′-untranslated regions of Xenopus β-globin mRNA[44]. Point mutations were introduced using QuikChange (Agilent, Basel, Switzerland). Mutations were verified by sequencing (Synergene Biotech, Zurich, Switzerland). Expression in Xenopus laevis oocytes was carried out as described previously. […]
# Electrophysiological measurements were performed 1–2 days after cRNA injection. Ion currents were recorded using two-electrode voltage-clamp at a holding potential of −60 mV with a Dagan TEV-200 amplifier (Minneapolis, MN). […] The amplitude of the sustained current was measured in the last two seconds of the pH5 perfusion. […]
smiles,measurement,value
"N=C(N)NCCC[C@H](NC(=O)[C@H](CCCNC(=N)N)NC(=O)[C@@H](N)Cc1ccccc1)C(=O)N[C@@H](Cc1ccccc1)C(N)=O [FRRFa, Phe-Arg-Arg-Phe-amide] (H-FRRF-NH2)",EC50,37 ± 15 µM
